In this assay the target is TRPA1 (Rattus norvegicus, UniProt Q6RI86). The assay can be described thus: TIRF Ca2+ imaging of TRPA1 sparklets in cerebral artery endothelial cells. The format is cell-based.

For orientation: EC50 means the concentration needed to bring the measured effect to its halfway point. A lower EC50 goes with an effect from little substance.

Sequence of TRPA1 (Q6RI86 whole entry): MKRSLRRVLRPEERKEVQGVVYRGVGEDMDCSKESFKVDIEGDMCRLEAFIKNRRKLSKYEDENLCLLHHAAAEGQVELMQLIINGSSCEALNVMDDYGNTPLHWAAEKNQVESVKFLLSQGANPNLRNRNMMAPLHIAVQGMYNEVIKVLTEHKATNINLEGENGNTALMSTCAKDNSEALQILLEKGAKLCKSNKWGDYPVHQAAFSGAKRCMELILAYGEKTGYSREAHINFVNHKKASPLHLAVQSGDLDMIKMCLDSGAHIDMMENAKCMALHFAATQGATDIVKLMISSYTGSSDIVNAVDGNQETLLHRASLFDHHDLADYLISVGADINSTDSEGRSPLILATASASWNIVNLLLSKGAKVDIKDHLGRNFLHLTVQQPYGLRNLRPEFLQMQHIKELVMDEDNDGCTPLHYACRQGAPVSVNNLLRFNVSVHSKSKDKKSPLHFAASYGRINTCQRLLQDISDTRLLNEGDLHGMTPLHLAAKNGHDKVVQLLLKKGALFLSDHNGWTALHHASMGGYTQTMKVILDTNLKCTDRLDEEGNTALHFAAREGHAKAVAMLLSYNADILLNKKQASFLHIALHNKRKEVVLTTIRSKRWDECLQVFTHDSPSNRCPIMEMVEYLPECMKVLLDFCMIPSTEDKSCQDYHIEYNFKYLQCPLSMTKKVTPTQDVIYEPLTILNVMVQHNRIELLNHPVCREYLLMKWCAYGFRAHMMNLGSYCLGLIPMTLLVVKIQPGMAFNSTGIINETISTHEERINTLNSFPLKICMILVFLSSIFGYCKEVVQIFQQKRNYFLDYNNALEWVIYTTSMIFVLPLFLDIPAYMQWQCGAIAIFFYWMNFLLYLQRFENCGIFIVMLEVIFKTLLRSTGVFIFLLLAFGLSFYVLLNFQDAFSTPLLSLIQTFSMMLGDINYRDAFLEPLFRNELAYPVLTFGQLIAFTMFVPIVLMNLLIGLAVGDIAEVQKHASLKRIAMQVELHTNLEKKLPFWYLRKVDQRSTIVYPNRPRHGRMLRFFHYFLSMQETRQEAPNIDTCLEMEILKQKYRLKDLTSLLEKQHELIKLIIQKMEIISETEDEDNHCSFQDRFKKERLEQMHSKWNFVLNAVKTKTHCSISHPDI

`CCCCCC(O)C=CC=O` (stereo not shown) [4-HNE]: the EC50 came out at 0.0648 ± 0.0504 µM.

These data come from publication PMC4745898 (Science signaling, 2015).
